How the values were obtained:
blood platelets [1] = test: Thrombocytopenia-inhibiting effect in X-ray-irradiated mice; type: in vivo, mouse (BDF1); conditions: 10 days after 5 Gy X-ray; 0.1 mg/kg i.v. within 2 h; mean ± SD; vehicle per series 10.3, 6.8, 6.7; non-treatment 68.2, 96.9, 73.0
Outline: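 Female BDF1 mice, 6 weeks old, six per group, given 5 Gy whole-body X-ray, then 0.1 mg/kg i.v. via tail vein within 2 hours. Platelets counted by hemocytometer in fundus-vein blood 10 days later; untreated and vehicle groups run alongside.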

[2] = system: marrow cells (mononuclear cell fraction); test: Proliferation-stimulating effect on marrow cell of mouse (3H-TdR uptake); type: cell-based, mouse (BALB/c); conditions: percentage of control, 72 h; for activity at 0.1 µg/mL: 10^-1 μg/ml; for activity at 0.01 µg/mL: 10^-2 μg/ml; for activity at 0.001 µg/mL: 10^-3 μg/ml; for activity at 1 µg/mL: 10^0 μg/ml
Outline: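 Mononuclear marrow cell fraction from 7-week-old female BALB/c mouse thigh bone, 1.5×10^6 cells/ml in 10% FCS RPMI 1640, cultured with test sample 72 h at 37° C. ³H-thymidine (0.5 μCi/well) then added for 8 h; nuclear ³H-TdR uptake counted by liquid scintillation.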

[3] = system: mononuclear cell fraction of human umbilical cord blood; test: Proliferation-stimulating effect on mononuclear cell fraction of human umbilical cord blood (3H-TdR uptake); type: cell-based; conditions: 96 h, percentage of control, 4 days; for activity at 0.1 µg/mL: 10^-1 μg/ml; for activity at 0.01 µg/mL: 10^-2 μg/ml; for activity at 0.001 µg/mL: 10^-3 μg/ml
Excerpt: Pharmacological Test 3: Proliferation-Stimulating Effect on Mononuclear Cell Fraction of Human Umbilical Cord Blood
It is extremely difficult to obtain human marrow cells. In addition, human umbilical cord blood contains stem cells (Nakahata, T. & Ogwa, M., J. Clin. Inveet. 70, 1324-1328 (1982)), so that it can be a good source of hematopoietic stem/progenitor cell supply (H. E. Broxneyer et al, Proc. Natl. Acad. Sci. USA, 86, 3828-3832 (1989)). For these reasons, the effect on human was examined by using, instead of human marrow cells, human umbilical cord blood.
To human umbilical cord blood was added an equal amount of RPMI 1640. This was placed on a Lymphoprep and centrifugal. The mononuclear cell fraction (MNF) thus obtained was used in the following experiment.
The concentration of the MNF was adjusted to 1×10^6 cells/ml by using an RPMI 1640 added with 10% auto-blood plasma as a culture medium. 10 μl/well of a sample with a predetermined concentration and 100 μl/well of the above-prepared MNF were placed on a round-bottomed 96 well plate and incubated under the conditions of 37° C. and 5% CO2 for 4 days. Thereafter, 0.5 μCi/well of ^3 H-TdR was added. After 8 hour incubation, the cells were harvested, and the amount of the 3H-TdR taken in the nuclei was measured by a liquid scintillation counter.

[4] = Life-span-increasing effect on irradiation of a lethal dose of radiation; type: in vivo, mouse (BDF1); conditions: 10 mice/group, 9 Gy X-ray, 0.1 mg/kg i.v. days 0, 4, 8
Experimental: Pharmacological Test 4: Life-Span-Increasing Effect on Irradiation of a Lethal Dose of Radiation
An experiment was carried out by using 6 week old female BDF1 mice purchased from Japan SLC Co., Ltd., with 10 mice made one group.
The entire bodies of the entire body of the mice were irradiated with 9 Gy of X-rays by using a Hitachi X-ray irradiator (MBR-1520R), and the day on which the X-ray was irradiated was referred to as "day 0".

blood platelets [5] = test: Blood-platelet-increasing effect upon normal mouse; type: in vivo, mouse (BDF1); conditions: normal mice; 6 days after 0.1 mg/kg i.v.; mean ± SD; vehicle per series 58.2, 63.0, 71.1
Outline: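 Female BDF1 mice, 6 weeks old (5 per group), received test sample at 0.1 mg/kg into the caudal vein. Six days later, fundus-vein blood was taken and platelets counted on a multi-channel hemocytometer, compared against vehicle-treated animals.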

[6] = day 10, controls per series 10, 10, 10, 10, 10, 8
[7] = day 15, controls per series 8, 9, 5, 5, 7, 1
[8] = day 20, controls per series 4, 5, 1, 2, 3, 0
[9] = day 25, controls per series 3, 3, 0, 0, 2, 0
[10] = day 30, controls per series 1, 1, 0, 0, 0, 0

| SMILES | Number of Blood Platelets (blood platelets [1]) | activity at 0.1 µg/mL [2] | activity at 0.01 µg/mL [2] | activity at 0.001 µg/mL [2] | activity at 0.1 µg/mL [3] | activity at 0.01 µg/mL [3] | activity at 0.001 µg/mL [3] | Number of Surviving Mice [4, 6] | Number of Surviving Mice [4, 7] | Number of Surviving Mice [4, 8] | Number of Surviving Mice [4, 9] | Number of Surviving Mice [4, 10] | Number of Surviving Mice ([4]; day 35, all controls 0) | Number of Surviving Mice ([4]; day 40, all controls 0) | Number of Blood Platelets (blood platelets [5]) | activity at 1 µg/mL [2] |
| --- | --- | --- | --- | --- | --- | --- | --- | --- | --- | --- | --- | --- | --- | --- | --- | --- |
| CCCCCCCCCCCCCCCCCCCCCCCC(=O)N[C@@H](CO[C@H]1O[C@H](CO)[C@H](O)[C@H](O)[C@H]1O)[C@H](O)[C@H](O)CCCCCCCCCCC [Compound 18, (2S,3S,4R)-1-(α-D-galactopyranosyloxy)-2-tetracosanoylamino-3,4-pentadecanediol] | 24.3 ± 8.6 × 10^4 /μl | 472% | 124% | 129% | 298% | 177% | 135% | 10 mice | 10 mice | 8 mice | 7 mice | 7 mice | 7 mice | 7 mice | 111.7 ± 5.4 × 10^4 /μl |  |
| CCCCCCCCCCCCCCCCCCCCCCCC[C@@H](O)C(=O)N[C@@H](CO[C@H]1O[C@H](CO)[C@H](O)[C@H](O)[C@H]1O)[C@H](O)[C@H](O)CCCCCCCCCCCCCCCC [Compound 27, (2S,3S,4R)-1-(α-D-galactopyranosyloxy)-2-[(R)-2-hydroxyhexacosanoylamino]-3,4-icosanediol] | 16.0 ± 4.1 × 10^4 /μl | 220% | 165% | 156% | 450% | 486% | 344% | 10 mice | 10 mice | 9 mice | 9 mice | 9 mice | 9 mice | 9 mice | 101.3 ± 7.1 × 10^4 /μl |  |
| CCCCCCCCCCCCCCCCCCCCCCCCCC(=O)N[C@@H](CO[C@H]1O[C@H](CO)[C@H](O)[C@H](O)[C@H]1O)[C@H](O)[C@H](O)CCCCCCCCCCCCC [Compound 20, (2S,3S,4R)-1-(α-D-galactopyranosyloxy)-2-hexacosanoylamino-3,4-heptadecanediol] | 19.8 ± 7.3 × 10^4 /μl | 466% | 201% | 67% | 692% | 474% | 507% | 10 mice | 8 mice | 7 mice | 7 mice | 6 mice | 6 mice | 6 mice | 110.9 ± 10.6 × 10^4 /μl | 982% |
| CCCCCCCCCCCCCCCCCCCCCC[C@@H](O)C(=O)N[C@@H](CO[C@H]1O[C@H](CO)[C@H](O)[C@H](O)[C@H]1O)[C@H](O)[C@H](O)CCCCCCCCCCCCC [Compound 22, (2S,3S,4R)-1-(α-D-galactopyranosyloxy)-2-[(R)-2-hydroxytetracosanoylamino]-3,4-heptadecanediol] | 25.4 ± 5.1 × 10^4 /μl | 226% | 116% | 104% | 362% | 357% | 204% | 10 mice | 10 mice | 10 mice | 9 mice | 8 mice | 8 mice | 8 mice | 104.1 ± 7.7 × 10^4 /μl | 613% |
| CCCCCCCCCCCCCCCCCCCCCC[C@@H](O)C(=O)N[C@@H](CO[C@H]1O[C@H](CO)[C@H](O)[C@H](O)[C@H]1O)[C@H](O)[C@H](O)CCCCCCCCCCCCCC [Compound 21, (2S,3S,4R)-1-(α-D-galactopyranosyloxy) -2-[(R) -2-hydroxytetracosanoylamino]-3,4-octadecanediol] | 22.7 ± 3.7 × 10^4 /μl | 244% | 96% | 84% | 552% | 530% | 305% | 10 mice | 10 mice | 10 mice | 10 mice | 10 mice | 10 mice | 10 mice | 94.8 ± 7.7 × 10^4 /μl | 799% |
| CCCCCCCCCCCCCCCCCCCCCCCC(=O)N[C@@H](CO[C@H]1O[C@H](CO)[C@H](O)[C@H](O)[C@H]1O)[C@H](O)[C@H](O)CCCCCCCCCCCCC [Compound 17, (2S,3S,4R)-1-(α-D-galactopyranosyloxy)-2-tetracosanoylamino-3,4-heptadecanediol] | 18.5 ± 4.4 × 10^4 /μl | 462% | 149% | 159% | 318% | 233% | 98% | 10 mice | 10 mice | 9 mice | 9 mice | 9 mice | 9 mice | 9 mice | 92.1 ± 11.3 × 10^4 /μl |  |
| CCCCCCCCCCCCCCCCCCCCCC[C@@H](O)C(=O)N[C@@H](CO[C@H]1O[C@H](CO)[C@H](O)[C@H](O)[C@H]1O)[C@H](O)[C@H](O)CCCCCCCCCCC [Compound 23, (2S,3S,4R)-1-(α-D-galactopyranosyloxy)-2-[(R)-2-hydroxytetracosanoylamino]-3,4-pentadecanediol] | 21.0 ± 5.9 × 10^4 /μl | 312% | 89% | 81% | 402% | 344% | 197% | 10 mice | 10 mice | 9 mice | 9 mice | 9 mice | 9 mice | 9 mice | 108.7 ± 14.8 × 10^4 /μl | 761% |

Reference: patent US6071884A, “Pharmaceutical compositions and therapeutic methods” (Kirin Beer Kabushiki Kaisha, priority 1992, dated 2000)
